“And” between values parts separate entries of the source, which are not always exact repeats. Identical values can stand only once. Non-standard residues stand in square brackets, D forms with d. No end group written: not given here. DAP = diaminopimelic acid
Test system: MDCK cells
Assay type: cell-based, canine
Conditions: MDCK monolayers, modified Hill equation fit; listed as SEQ ID NO. 27; read-out: half maximal effect on Isc (EC50 / K1/2)
Text: Cell culture: MDCK cells were a generous gift of Dr. Lawrence Sullivan (Kansas University Medical Center, Kansas City, Kans.). T84 cells were obtained from Dr. Daniel Devor (University of Pittsburgh, Pittsburgh, Pa.). MDCK and T84 cells were maintained with similar culture procedures. The culture medium was a 1:1 mixture of DMEM and Ham's F-12 (Gibco BRL, Grand Island, N.Y.) supplemented with 5% heat inactivated fetal bovine serum (BioWhittaker, Walkersville, Md.), and 1% penicillin and streptomycin (Gibco BRL). Cells were grown in plastic culture flasks in a humidified environment with 5% CO2 at 37° C. and passaged every 5-7 days. For Ussing chamber experiments, cells were plated on 1.13 cm^2 permeable supports (Snapwell™, Costar®, Cambridge, Mass.) at a density of approximately 1×10^6 cells/well and incubated in DMEM/F-12 supplemented with FBS and antibiotics (changed every other day) for 2-3 weeks prior to being mounted in modified Ussing flux chambers.
To form monolayers, the cells were plated onto the upper surface of a permeable membrane that forms the bottom of a plastic well. Two types were used. One was the Transwell™ insert (Costar®, Cambridge, Mass.) supported in a six-well tissue culture plate and the other type was the Snapwell™ (Costar®, Cambridge, Mass.). During incubation, the medium was replaced at 48-72 hour intervals. Confluent monolayers formed within 72 hours. Experiments were performed on the monolayers 6-9 days after the initial plating. Net fluid secretion responses were optimal after six days.
Solutions: Ringer solution was made fresh daily. The final concentration (in mM) was 120 NaCl, 25 NaHCO3 3.3 KH2HPO4, 0.8 K2HPO4, 1.2 MgCl2, 1.2 CaCl2, (290±2 mOsmol). All components of the Ringer solution were from Sigma (St. Louis, Mo.).
(§1) Epithelial electrical measurements: Transepithelial ion transport was evaluated in a modified Ussing chamber (Model DCV9, Navicyte, San Diego, Calif.). The Ussing chamber's fluid resistance compensation was completed in Ringer solution (see below). For electrical measurements cell monolayers were bathed in Ringer solution maintained at 37° C. and continuously bubbled with 5% CO2:95% O2. The transepithelial membrane potential (Vte) was clamped to zero and the transepithelial short circuit current (Isc), an indicator of net ion transport, was measured continuously with a voltage clamp apparatus (Model 558C, University of Iowa, Department of Bioengineering, Iowa City, Iowa). Data were digitally acquired at 1 Hz with a Macintosh computer (Apple Computer, Cuppertino, Calif.) using Aqknowledge software (ver. 3.2.6, BIOPAC Systems, Santa Barbara, Calif.) with an MP100A-CE interface.
as §1, with “Transepithelial” for “Epithelial electrical measurements: Transepithelial”, “(composition (in mM) was 120 NaCl, 25 NaHCO3 3.3 KH2HPO4, 0.8 K2HPO4, 1.2 MgCl2, 1.2 CaCl2).” for “(see below).”
MDCK cell monolayers (in the presence of 1-EBIO to maximize basolateral membrane K^+ conductance) were exposed on the apical aspect to escelating peptide concentrations. Maximal change in Isc (relative to the Isc prior to peptide exposure) was recorded following each increment in apical peptide concentration. […]

| Molecule | EC50 |
| --- | --- |
| KKKKAARVGLGITTVLVTTIGLGVRAA [SEQ ID No. 27, KKKKAARVGL GITTVLVTTI GLGVRAA] | 50 µM and ~40 µM |

Same assay, conditions: MDCK monolayers, modified Hill equation fit; read-out: half maximal effect on Isc (EC50 / K1/2)

| Molecule | EC50 |
| --- | --- |
| KKKKAARVGLGITTVLVTTIGLGVRAA [SEQ ID No. 27, KKKKAARVGL GITTVLVTTI GLGVRAA] | 40 µM |

Same assay, conditions: MDCK pretreatment, basal conditions

| Molecule | effect on ISC or gTE |
| --- | --- |
| CCn1c(=O)[nH]c2ccccc21 [1-EBIO, reference compound] | no effect |

Same assay, conditions: peptide at 100 μM

| Molecule | Activity profile in MDCK cells |
| --- | --- |
| KKKKAARVGLGITTVVTTIGLGVRAA (KKKKAARVGLGITTVVTTIGLGVRAA; Modified Homo sapiens) [SEQ ID No. 28] | 17.3 at 100 μM μA/cm2 |

Same assay, conditions: peptide at 250 μM

| Molecule | Activity profile in MDCK cells |
| --- | --- |
| KKKKPARVGLGITTVLAARVGLGITTV (KKKKPARVGLGITTVLAARVGLGITTV; Modified Homo sapiens) [SEQ ID No. 21] | 8.0 at 250 μM μA/cm2 |

Same assay, conditions: peptide at 300 μM

| Molecule | Activity profile in MDCK cells |
| --- | --- |
| KKKKARSGSSQTTMTLVTTIGLGVRAA (KKKKARSGSSQTTMTLVTTIGLGVRAA; Modified Homo sapiens) [SEQ ID No. 4] | 18.7 at 300 μM μA/cm2 |

Same assay, conditions: peptide at 500 μM

| Molecule | Activity profile in MDCK cells |
| --- | --- |
| AARVGLGITT V (AARVGLGITTV; Modified Homo sapiens) [SEQ ID No. 52] | <1.0 at 500 μM μA/cm2 |
| ARSGSSQTTM T (ARSGSSQTTMT; Modified Homo sapiens) [SEQ ID No. 51] | <1.0 at 500 μM μA/cm2 |
| ARSGSSQTTMTLVTTIGLGVRAPKKKK (ARSGSSQTTMTLVTTIGLGVRAPKKKK; Modified Homo sapiens) [SEQ ID No. 17] | 3.6 at 500 μM μA/cm2 |
| GITTVLTMTTQSSGSRAKKKK (GITTVLTMTTQSSGSRAKKKK; Modified Homo sapiens) [SEQ ID No. 44] | <1.0 at 500 μM μA/cm2 |
| GLGITTVLTMTTQSSGSRAKKKK (GLGITTVLTMTTQSSGSRAKKKK; Modified Homo sapiens) [SEQ ID No. 42] | 3.3 at 500 μM μA/cm2 |
| ITTVLTMTTQ SSGSRAKKKK (ITTVLTMTTQSSGSRAKKKK; Modified Homo sapiens) [SEQ ID No. 45] | <1.0 at 500 μM μA/cm2 |
| KKKKARSGSSQTTMTLARSGSSQTTMT (KKKKARSGSSQTTMTLARSGSSQTTMT; Modified Homo sapiens) [SEQ ID No. 25] | <1.0 at 500 μM μA/cm2 |
| KKKKARSGSSQTTMTLTMTTQSSGSRA (KKKKARSGSSQTTMTLTMTTQSSGSRA; Modified Homo sapiens) [SEQ ID No. 23] | 4.2 at 500 μM μA/cm2 |
| KKKKPARVGL GITTVL (KKKKPARVGLGITTVL; Modified Homo sapiens) [SEQ ID No. 40] | 1.5 at 500 μM μA/cm2 |
| KKKKPARVGLGITTVLPARVGLGITTV (KKKKPARVGLGITTVLPARVGLGITTV; Modified Homo sapiens) [SEQ ID No. 20] | <1.0 at 500 μM μA/cm2 |
| KKKKPARVGL GITTVLT (KKKKPARVGLGITTVLT; Modified Homo sapiens) [SEQ ID No. 39] | 1.8 at 500 μM μA/cm2 |
| KKKKPARVGL GITTVLTM (KKKKPARVGLGITTVLTM; Modified Homo sapiens) [SEQ ID No. 38] | 6.8 at 500 μM μA/cm2 |
| KKKKPARVGL GITTVLTMT (KKKKPARVGLGITTVLTMT; Modified Homo sapiens) [SEQ ID No. 37] | 8.7 at 500 μM μA/cm2 |
| KKKKPARVGL GITTVLTMTT (KKKKPARVGLGITTVLTMTT; Modified Homo sapiens) [SEQ ID No. 36] | 8.8 at 500 μM μA/cm2 |
| KKKKPARVGLGITTVLTMTTQ (KKKKPARVGLGITTVLTMTTQ; Modified Homo sapiens) [SEQ ID No. 35] | 13.1 at 500 μM μA/cm2 |
| KKKKPARVGLGITTVLTMTTQR (KKKKPARVGLGITTVLTMTTQR; Modified Homo sapiens) [SEQ ID No. 14] | 20.0 at 500 μM μA/cm2 |
| KKKKPARVGLGITTVLTMTTQS (KKKKPARVGLGITTVLTMTTQS; Modified Homo sapiens) [SEQ ID No. 34] | 20.3 at 500 μM μA/cm2 |
| KKKKPARVGLGITTVLTMTTQSSGS (KKKKPARVGLGITTVLTMTTQSSGS; Modified Homo sapiens) [SEQ ID No. 33] | 18.4 at 500 μM μA/cm2 |

| Molecule | Activity profile in MDCK cells |
| --- | --- |
| KKKKPARVGLGITTVLTMTTQSSGSRAKKKK (KKKKPARVGLGITTVLTMTTQSSGSRAKKKK; Modified Homo sapiens) [SEQ ID No. 47] | 5.0 at 500 μM μA/cm2 |
| KKKKPARVGLGITTVLTMTTRS (KKKKPARVGLGITTVLTMTTRS; Modified Homo sapiens) [SEQ ID No. 13] | 24.0 at 500 μM μA/cm2 |
| KKKKPARVGL GITTVLTRTT (DAP)S (KKKKPARVGLGITTVLTRTT[DAP]S) [SEQ ID No. 32] | 24.0 at 500 μM μA/cm2 |
| KKKKPARVGLGITTVLTRTTQS (KKKKPARVGLGITTVLTRTTQS; Modified Homo sapiens) [SEQ ID No. 15] | <1.0 at 500 μM μA/cm2 |
| KKKKPARVGLGITTVWTMTTQSSGSRA (KKKKPARVGLGITTVWTMTTQSSGSRA; Modified Homo sapiens) [SEQ ID No. 10] | 20.0 at 500 μM μA/cm2 |
| KKKKTMTTQSSGSRALARSGSSQTTMT (KKKKTMTTQSSGSRALARSGSSQTTMT; Modified Homo sapiens) [SEQ ID No. 24] | <1.0 at 500 μM μA/cm2 |
| KKKKTMTTQSSGSRALTMTTQSSGSRA (KKKKTMTTQSSGSRALTMTTQSSGSRA; Modified Homo sapiens) [SEQ ID No. 6] | <1.0 at 500 μM μA/cm2 |
| KKKKTMTTQSSGSRALVTTIGLGVRAA (KKKKTMTTQSSGSRALVTTIGLGVRAA; Modified Homo sapiens) [SEQ ID No. 7] | <1.0 at 500 μM μA/cm2 |
| KKKKVTTIGLGVRAPLARSGSSQTTMT [SEQ ID No. 8] | <1.0 at 500 μM μA/cm2 |
| KKKKVTTIGLGVRAPLPARVGLGITTV (KKKKVTTIGLGVRAPLPARVGLGITTV; Modified Homo sapiens) [SEQ ID No. 22] | <1.0 at 500 μM μA/cm2 |
| LGITTVLTMTTQSSGSRAKKKK (LGITTVLTMTTQSSGSRAKKKK; Modified Homo sapiens) [SEQ ID No. 43] | <1.0 at 500 μM μA/cm2 |
| LTMTTQSSGS RAKKKK (LTMTTQSSGSRAKKKK; Modified Homo sapiens) [SEQ ID No. 46] | <1.0 at 500 μM μA/cm2 |
| PARVGLGITT V (PARVGLGITTV; Modified Homo sapiens) [SEQ ID No. 48] | <1.0 at 500 μM μA/cm2 |
| RVGLGITTVLTMTTQSSGSRAKKKK (RVGLGITTVLTMTTQSSGSRAKKKK; Modified Homo sapiens) [SEQ ID No. 41] | 6.3 at 500 μM μA/cm2 |
| TMTTQSSGSR A (TMTTQSSGSRA; Modified Homo sapiens) [SEQ ID No. 49] | <1.0 at 500 μM μA/cm2 |
| VTTIGLGVRA A (VTTIGLGVRAA; Modified Homo sapiens) [SEQ ID No. 53] | <1.0 at 500 μM μA/cm2 |
| VTTIGLGVRA P (VTTIGLGVRAP; Modified Homo sapiens) [SEQ ID No. 50] | <1.0 at 500 μM μA/cm2 |

Reference: patent publication US8163870B2, “Channel forming peptides” (Kansas State University Research Foundation, priority 2000, dated 2012)
